Columns and labels:
human MMP-1 [1] = target: T1, human MMP-1 (Homo sapiens, UniProt P03956); assay: In vitro MMP-inhibiting activity (fluorimetry), MMP-1; type: biochemical
T1 sequence (P03956 100-469): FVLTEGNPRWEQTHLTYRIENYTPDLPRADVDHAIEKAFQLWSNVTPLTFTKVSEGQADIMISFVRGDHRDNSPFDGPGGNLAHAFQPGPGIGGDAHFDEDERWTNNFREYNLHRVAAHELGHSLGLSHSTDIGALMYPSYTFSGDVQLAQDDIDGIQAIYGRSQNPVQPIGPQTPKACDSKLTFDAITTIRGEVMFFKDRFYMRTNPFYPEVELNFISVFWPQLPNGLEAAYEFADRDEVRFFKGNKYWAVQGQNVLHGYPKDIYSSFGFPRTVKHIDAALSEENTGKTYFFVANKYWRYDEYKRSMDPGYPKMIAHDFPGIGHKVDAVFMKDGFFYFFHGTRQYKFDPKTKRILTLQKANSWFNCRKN
Method: The inventors assayed the in vitro activity of the P947 and P967 gadolinium-chelate contrast products functionalized with matrix metalloproteases inhibitors (MMPs), on human MMP-1 and MMP-3. As regards the affinity of the biovector component, on the receptor, the controls were two peptides:
More precisely, the in vitro MMP-inhibiting activity was evaluated in the following way: • 1. Incubation of the test product in the presence of the MMP enzyme, at 37° C., for a defined period of time, and then measurement of the fluorescence of the medium (t=0). • 2. Induction of the enzyme reaction by addition of the substrate to (which becomes fluorescent when it is cleaved by the enzyme), and then incubation at 37° C. for 40 min. A second measurement of fluorescence is then taken (t=40). • 3. The activity of the MMP enzyme is determined by subtraction of the signal measured by fluorimetry: (t=40)-(t=0). • 4. The results are expressed as percentage inhibition of the activity of the control enzyme. • 5. The standard inhibitory product is TIMP-1.
The products were tested in duplicate, at 10^−5, 10^−7 and 10^−9 M with respect to peptides. Those which contain no peptides were treated in a manner similar to the corresponding functionalized contrast products.

MMP-2 [2] = target: T2, MMP-2 (Homo sapiens, UniProt P08253); assay: In vitro MMP-inhibiting activity (fluorimetry), MMP-2; type: biochemical
T2 sequence (P08253 110-660): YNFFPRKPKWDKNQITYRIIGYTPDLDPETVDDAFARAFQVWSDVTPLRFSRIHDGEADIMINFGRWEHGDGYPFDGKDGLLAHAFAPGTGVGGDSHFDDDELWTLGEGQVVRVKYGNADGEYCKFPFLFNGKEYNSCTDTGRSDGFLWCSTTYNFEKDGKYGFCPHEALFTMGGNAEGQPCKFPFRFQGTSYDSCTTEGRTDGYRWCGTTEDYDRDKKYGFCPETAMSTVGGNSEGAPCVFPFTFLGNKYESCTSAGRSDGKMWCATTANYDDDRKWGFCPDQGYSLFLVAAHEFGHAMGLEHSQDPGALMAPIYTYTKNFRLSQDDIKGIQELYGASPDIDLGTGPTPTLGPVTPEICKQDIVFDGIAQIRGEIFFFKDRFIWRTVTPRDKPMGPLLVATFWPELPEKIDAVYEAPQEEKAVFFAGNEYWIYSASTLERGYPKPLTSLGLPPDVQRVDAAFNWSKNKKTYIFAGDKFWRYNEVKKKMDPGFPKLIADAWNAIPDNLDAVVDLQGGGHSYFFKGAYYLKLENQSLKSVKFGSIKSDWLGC
Method: The inventors also tested the in vitro activity in order to evaluate the inhibitory activity of P947 and of the tetrapeptide on MMP-2, a gelatinase A expressed constitutively in the vascular wall and overexpressed in the case of inflammation.
Control: commercial tetrapeptide (called peptide B in the study): 4-Abz-Gly-Pro-Dleu-Dala-NHOH (Bachem); inhibitor of MMP-1, MMP-2 and MMP-3.
The detailed protocol is as follows for MMP2s: the product tested is added to a 50 mM. Tris-HCl buffer (pH 7.5) containing 150 mM NaCl, 10 mM […], 0.02% NaN3, 0.05% Brij®35 and 0.35 μM MMP-2 activated by incubation for 120 minutes at 37° C. with 6.67 mM APMA. The fluorescence intensity is measured after preincubation for 30 minutes at 37° C., at lambda ex=340 nm and lambda em=405 nm. The enzyme reaction is initiated by adding 6 μM NFF-2, with subsequent incubation for 90 minutes at 37° C.

human MMP-1 [3] = target: T1, human MMP-1; conditions: value of the peptide component, not of the Gd conjugate, read-out: IC50 OF THE PEPTIDE (LITERATURE); cited from earlier work
MMP-2 [4] = target: T2, MMP-2; conditions: read-out: IC50 on MMP-2 (literature); cited from earlier work
THP-1 cells = assay: Uptake of PS-NBD by THP-1 cells, flow cytometry; type: cell-based, human; conditions: PS-NBD range 13, 32 and 64 μM; 24 hours
Method: In vitro validation was performed by comparing the rate of uptake by activated macrophages versus non-activated macrophages (activated THP-1 cells are positive for the PS receptor). […] PS-NBD is a phosphatidylserine comprising only one fatty chain, the other arm linked to the serine head supporting the fluorescence marker NBD.
The THP-1 cell line is a human monocyte line which, after activation, differentiates into macrophages and expresses the phosphatidylserine receptor. These cells were cultured in the presence of phosphatidylserine-NBD.
Protocol with Flow Cytometry • 2 ml of a suspension of THP-1 at 10^6 C/ml are seeded in a 6-well plate. • The THP-1 are activated for 24 hours with 50 nmol/l of PMA. • […] of each of the dilutions (from the solution at 6.25 mmol/l) are incubated for 24 hours. • The excess product is suctioned off. • The cell layer is washed with 1 ml of RPMI without phenol red. • The excess is suctioned off. • The cells are resuspended in 1 ml of PBS (detachment of the cells using a flow of medium over the layer then scraping of the cells which have not detached, using a scraper). • The cells are kept in the dark at 4° C. while awaiting reading. • The fluorescence is read in FL1 at 525 nm by flow cytometry.
PS-NBD range tested: 13, 32 and 64 μM
Groups tested: THP-1/PMA, THP-1/PS-NBD at 5 μM.

[5] = test system: primary macrophages from WHHL rabbits; assay: Ex vivo incubation of WHHL rabbit macrophages/aortic tissues with PS-NBD, fluorescence microscopy; type: cell-based; conditions: incubated 18 h ex vivo; 35 μM
Method: In fact macrophages were isolated from aortic arch and mesenteric lymph node samples, and then incubated for 18 h ex vivo in the presence of PS-NBD. […] More precisely, the rabbit was subjected to exsanguinating perfusion with heparinized newborn calf serum before being sacrificed. The aortic arch, the thoracic aorta and the abdominal aorta were removed. The tissue removed were incubated for 18 hours in cell culture medium to which PS-NBD had been added and were then mounted in frozen blocks in order for histological sections to be cut. Certain sections were observed by fluorescence microscopy and others were immunolabelled using an anti-rabbit macrophage antibody (RAM 11).
• Incubation of the samples at 37° C. in 24-well plates in the presence of PS-NBD at 35 μM for 18 hours. • 2 rinses of the arteries in PBS. • Embedding of each piece of aorta in a freezing gel. • Cryofixation. • Storage of the components in a −80° C. freezer. Immunohistochemistry (HEGP) • The mouse primary antibody Ram 11 is used at a 1/100 dilution. • The secondary antibody (goat anti-mouse) is coupled to alkaline phosphatase. • The chromogen used is ADC (supplied by AbCys). • Fast re counterstaining is carried out.

[6] = test system: macrophages located in the plaques; assay: Ex vivo distribution of PS-NBD in atheroma plaques of ApoE-KO mice; type: cell-based
Method: For this, samples of heart comprising valves and aortic arch and also the iliac bifurcation are incubated in the presence of PS-NBD.

SIGNIFICANT INHIBITORY EFFECT (human MMP-1 [1]; concentration of peptide 10^−5M) [%] | CONCENTRATION OF PEPTIDE (with significant inhibitory effect) (human MMP-1 [1]; tested at 10^−5, 10^−7 and 10^−9 M with respect to peptides) | concentration from which significant inhibitory activity on MMP-2 (MMP-2 [2]) | Compound | IC50 (human MMP-1 [3]) [µM] | IC50 (MMP-2 [4]) [µM] | ratio of the negative control to the highest concentration (fluorescence, FL1 525 nm) (THP-1 cells) | intracellular accumulation in macrophages [5] | interaction with macrophages in atheroma plaques [6]
46 | 10^−5M | ≥ 10^−5 M | 4-Abz-Gly-Pro-Dleu-Dala-NHOH [PEPTIDE B] | 1 | 30 | – | – | –
– | – | – | CCCCCCCCCCCCCCCC(=O)OC[C@H](COP(=O)(O)OC[C@H](N)C(=O)O)OC(=O)CCCCCNc1ccc([N+](=O)[O-])c2nonc12 [PS-NBD] | – | – | > 50 | large intracellular accumulation | interacts specifically with the macrophages located in the plaques

From US20060239926A1, “Specific high-relaxivity compounds” (GUERBET, priority 2003, published 2006)
